Laboratory results taken from patent US7319093B2, “Antidiabetic 2-substituted-5′-O-(1-Boranotriphosphate) adenosine derivatives” (Bar-Ilan University, priority 2001, dated 2008).
Values joined by “and” are separate entries in the source; they are usually repeats but may differ in a detail not shown here. Identical values can stand only once. Like-named read-outs stand apart in the source and are kept apart here.

Key:
[1] = system: isolated and perfused rat pancreas; conditions: cited from earlier work
dog = conditions: cited from earlier work
fed rats = conditions: cited from earlier work
[2] = system: rat isolated and perfused pancreas; test: Insulin secretion from isolated perfused rat pancreas (8.3 mmol/L glucose)
Description: (§1) The effects of the compounds on insulin secretion and vascular resistance in the rat isolated and perfused pancreas were evaluated in the presence of a slightly stimulating glucose concentration (8.3 mmol/L).
(§2) Experiments were performed in vitro in isolated perfused pancreas from male Wistar albino rats fed ad libitum and weighing 300-350 g. The pancreas was completely isolated according to a technique previously described (Loubatières et al., Diabetologia, 1969, 5, 1-10) and perfused through its own arterial system with a Krebs-Ringer bicarbonate buffer containing 8.3 mmol/L glucose and 2 g/L bovine serum albumin. A mixture of O2 (95%) and CO2 (5%) was bubbled through this medium at atmospheric pressure. The pH of the solution was 7.35. The preparation was maintained at 37.5° C. Each organ was perfused at a constant pressure (40-50 cm water) selected so as to produce a flow rate of 2.5 ml/min at the start of the experiment; in these conditions, any change in the flow rate reflects a change in vascular resistance (Hillaire-Buys et al., Eur. J. Pharmacol., 1991, 199, 309-314). A 30 min adaptation period was allowed before the first sample was taken for insulin assay. A sample was taken 15 min later, at time 45 min. Then, an infusion of ATP analogues was performed during 30 min. The pancreatic flow rate was recorded and insulin was measured in the effluent fractions.
Insulin was assayed by the radioimmunological method of Herbert et al. (J. Clin. Endocrinol. Metab., 1965, 25, 1375-1384) using a purified rat insulin as standard (Linco Research, St. Charles, Mo., USA) and anti-insulin serum (ICN Biochemicals, Miles, Puteaux, France). The assay sensitivity was 0.1 ng/ml. Insulin output from perfused pancreas is expressed as ng/min and was determined by multiplying the hormone concentration in the effluent fraction by the flow rate.
(§3) Results are expressed as means±standard error of the mean (SEM). For the kinetics of insulin secretion and vascular flow rate, the results are expressed as changes in relation to the value at time 45 min taken as 100%. For the determination of the concentration-response relationship, the mean insulin output rate was calculated as follows: the area under the curve for the drug infusion period divided by the number of minutes (AUC/30).

[3] = system: rat isolated and perfused pancreas; test: Pancreatic flow rate (vascular resistance) in isolated perfused rat pancreas; conditions: for change in pancreatic flow rate: baseline 2.5 mL/min at time 45 min = 100%
Description: as §1, §2, §3

rat isolated pancreas = test: Glucose-dependence of the insulin response in the isolated rat pancreas; conditions: 20 nmol/L during 20 minutes, mean±sem
Description: The rat isolated pancreas is perfused in vitro with a physiological medium containing different concentrations of glucose. VK 38A is added during 20 minutes at 20 nmol/L. Insulin response is determined by the area under the concentration-time curve during VK 38A administration and is expressed as mean±sem.

[4] = system: Normal (non diabetic) Wistar rats; test: Effect on glycemia in vivo, glucose tolerance test; design: species or system rat; conditions: in percent of baseline values, single oral dose 0.2 mg/kg, glucose 2 g/kg i.p., 0-60 min, individual animals 1-4
Description: Normal (non diabetic) Wistar rats were treated with a single oral dose of VK 38A (0.2 mg/kg) or placebo (vehicle) administered just before a glucose tolerance test, in a cross-over experimental design with a 7-day wash-out period. Glucose (2 g/kg) was administered by intraperitoneal injection. Blood samples were taken before and 10, 20, 30, 60 minutes after glucose load to measure glycemia. The area under the curve of plasma glucose concentrations (in percent of baseline values) was calculated. Results in four animals are given in Table 2 (baseline glucose concentrations were 1.26±0.02 and 1.26±0.04 g/L in control and treated animals, respectively).

[5] = injected directly to the pancreatico-duodenal artery
[6] = conscious dogs, oral administration

## CCCCCCSc1nc(N)c2ncn([C@H]3O[C@@H](COP(O)(=S)OP(=O)(O)OP(=O)(O)O)[C@H](O)[C@@H]3O)c2n1 (stereo partly drawn) [2-hexylthio-ATP-α-S]
[1]; insulin secretion
  enhancement of potency relative to ATP: 100 fold
[1]; nM concentration range
  increase in glucose-induced insulin secretion: up to 500%

## CSc1nc(N)c2ncn([C@@H]3O[C@H](COP(=O)(O)OP(=O)(O)OP(=O)(O)O)[C@@H](O)[C@H]3O)c2n1 [2-methylthio-ATP]
dog; [5]
  glycemia: slightly decreased glycemia
  insulin release: stimulated insulin release

## Nc1ncnc2c1ncn2[C@@H]1O[C@H](COP(=O)(O)OP(O)(O)=S)[C@@H](O)[C@H]1O [ADP-β-S, Adenosine 5′-O-(2-thio)diphosphate]
dog; [6]
  glycemia: reducing glycemia
  insulinemia: transiently increasing insulinemia
Fed rats
  Insulin response: sustained insulin response
  glycemia: reduction of glycemia

## BP(=O)(OC[C@H]1O[C@@H](n2cnc3c(N)nc(SC)nc32)[C@H](O)[C@@H]1O)OP(=O)(O)OP(=O)(O)O (stereo partly shown) [VK 38A, 2-methylthioadenosine-5′-O-(1-boranotriphosphate)]
[2]
  maximal effect on insulin secretion (AUC for 30 min in % per min): approximately 900%
[2]; 1.5 nmol/L, value at time 45 min taken as 100%
  transient monophasic insulin response: 230%
[2]; 30 min infusion
  concentration range of immediate and concentration-dependent insulin response: 0.0015 to 5.0 µmol/L
[3]; 0.5 μmol/L
  change in pancreatic flow rate: −6±3%
[3]; 1.5 μmol/L
  change in pancreatic flow rate: −10±3%
[3]; 5.0 μmol/L
  change in pancreatic flow rate: −8±6%
[3]; till 150 nmol/L
  vascular effects (pancreatic flow rate): no significant effect
Rat isolated pancreas; glucose 2.8 mmol/L
  Insulin response: 0.97 ± 0.03 ng/min
Rat isolated pancreas; glucose 5.0 mmol/L
  Insulin response: 2.68 ± 0.52 ng/min
Rat isolated pancreas; glucose 8.3 mmol/L
  Insulin response: 33.12 ± 1.75 ng/min
[4]
  AUC (VK38A-treated): area under the curve of plasma glucose concentrations: 158 and 201 and 134 and 176

## BP(=O)(OC[C@H]1O[C@@H](n2cnc3c(N)nc(SC)nc32)[C@H](O)[C@@H]1O)OP(=O)(O)OP(=O)(O)O (stereo partly shown) [VK 38B, 2-methylthioadenosine-5′-O-(1-boranotriphosphate)]
[2]
  insulin response compared with VK 38A: less potent than that induced by isomer A
[3]; from the concentration of 15 nmol/L
  transient reduction in pancreatic flow rate (increase in vascular resistance): −27±5%

## BP(=O)(OC[C@H]1O[C@@H](n2cnc3c(N)ncnc32)[C@H](O)[C@@H]1O)OP(=O)(O)OP(=O)(O)O (stereo partly shown) [VK 39A, adenosine-5′-O-(1-boranotriphosphate)]
[2]
  insulin response compared with VK 38A: clearly less potent than that of VK 38 A
[3]; 0.5 μmol/L
  change in pancreatic flow rate: +7±3%
[3]; 5.0 μmol/L
  change in pancreatic flow rate: +10±3%

## BP(=O)(OC[C@H]1O[C@@H](n2cnc3c(N)nc(Cl)nc32)[C@H](O)[C@@H]1O)OP(=O)(O)OP(=O)(O)O (stereo partly shown) [VK 44A, 2-chloroadenosine-5′-O-(1-boranotriphosphate)]
[2]
  insulin response compared with VK 38A: comparable to that of VK 38A
[3]; 0.015 μmol/L
  change in pancreatic flow rate: +8±3%
[3]; 0.15 μmol/L
  change in pancreatic flow rate: +16±5%
[3]; 1.5 μmol/L
  change in pancreatic flow rate: +12±5%
